Data set [1] relates to RAW 264.7 cells. Put plainly: MTT cytotoxicity test against RAW 264.7. As to conditions: 24 h. The class given is cell-based, mice. The procedure: The cell line RAW 264.7 was obtained from the Rio de Janeiro Cell Bank (CR108). These cells are macrophages derived from induced tumors in male BALB/c mice infected with Abelson’s murine leukemia virus ([Raschke et al., 1978]). RAW264.7 cells were grown in DMEM medium (Dulbecco’s Modified Eagle’s medium, composed of CaCl2 (anhydrous) 200 mg.ml^−1, Fe(NO3).9H2O 0.1 mg.ml^−1, KCL 400 mg.ml^−1, MgSO4 (anhydrous) 97.67 mg.ml^−1, NaCL 6.400 mg.ml^−1, NaH2PO4.H2O 125 mg.ml^−1) supplemented with 10% (v/v) of bovine fetal serum, 0.5% (v/v) of DMEM amino acid solution, 0.05% (w/v) gentamicin, 0.5% (w/v) of L-glutamine, and 0.5% (w/v) of penicillin/streptomycin (1,000 U.ml^−1) in an incubator containing 5% CO2, at 37°C, and 95% humidity ([Raschke et al., 1978]; [Nguyen et al., 2017]).
RAW 264.7 cells were seeded in 96-well plates, at a concentration of 10^4 cells/well, and incubated for 24 h. Each peptide was subsequently added at different micromolar concentrations (Table 1). Positive control was performed by cells in culture medium and negative control, as cell culture in lysis solution (10 mM Tris, 1 mM EDTA, and 0.1% Triton X-100, pH 7.4).
Cell viability analyses were performed in technical and biological replicates, and readings were obtained after 24 h of contact with peptides. At the end of the incubation period, MTT (Sigma-Aldrich, United States) was used to assess the ability of living cells to reduce salt 3-[4,5-dimethylthiazole-2-yl]-2,5-diphenyltetrazolium bromide for formazan production. Plates were read at 570 ηm ([Mosmann, 1983]) and results were expressed in the percentage of living cells. The results were analyzed using GraphPad Prism 8 software where a One-Way ANOVA statistical test was followed by Bonferroni’s multiple comparisons test.
(In general: Formazan colour is commonly taken as a measure of viable cells.)

The subject of data set [2] is K. pneumoniae (ATCC 13883). Format: cell-based, Klebsiella pneumoniae. As to conditions: K. pneumoniae (ATCC13883); 5×10^5 CFU.ml^−1, Mueller-Hinton Broth, 37°C, 24 h, OD 595 nm, biological triplicates. Here is the method:
(§1) Susceptibility tests were performed using clinical isolates of Klebsiella pneumoniae carbapenemase (KPC 1410503) and methicillin-resistant S. aureus (MRSA 3730592). Tests were also performed with ATCC (American Type Culture Collection) isolates of K. pneumoniae (ATCC 13883) and S. aureus (ATCC 25923).
(§2) Two multidrug-resistant clinical isolates and two ATCC isolates were chosen to perform microbial susceptibility testing as models for studies with bacteria susceptible to antimicrobials found in the Gram-Positive and Gram-Negative groups of bacteria.
(§3) The broth microdilution method was performed according to the Clinical and Laboratory Standards Institute (CLSI) M07-A10 protocol to determine the Minimum Inhibitory Concentration (MIC; [Clinical Laboratory Standards Institute, 2015]). The assay was performed on 96-well microplates (TPP, United States), containing 5×10^5 CFU.ml^−1 of each tested bacterium per well and different peptide micromolar concentrations (Table 1) in a final volume of 100 μl of Mueller-Hinton Broth (MH). Negative control was represented by bacteria incubated in MH medium, while positive control was represented by culture incubated in MH medium with Amikacin. Plates were kept under agitation at 37°C in a BioTek spectrophotometer (PowerWaveTM HT Microplate Reader) with optical density (OD) readings at 595 nm every 30 min for 24 h. Inhibition results were analyzed using GraphPad Prism 8 software by comparing the OD from negative control wells (100%) to those containing peptides. All tests were performed in biological triplicates.

The subject of data set [3] is methicillin-resistant S. aureus (MRSA 3730592). Format: cell-based, Staphylococcus aureus. As to conditions: Methicillin-Resistant S. aureus—MRSA clinical isolate 3730592; 5×10^5 CFU.ml^−1, Mueller-Hinton Broth, 37°C, 24 h, OD 595 nm, biological triplicates. The procedure: as §1, §2, §3
For data set [4], the system named is S. aureus (ATCC 25923). The class given is cell-based, Staphylococcus aureus. The conditions noted are these: S. aureus (ATCC25923); 5×10^5 CFU.ml^−1, Mueller-Hinton Broth, 37°C, 24 h, OD 595 nm, biological triplicates. The procedure:
as §1, §2, §3

For data set [5], the system named is Klebsiella pneumoniae carbapenemase (KPC 1410503). Format: cell-based. The conditions noted are these: K. pneumoniae carbapenemase—KPC clinical isolate 1410503; 5×10^5 CFU.ml^−1, Mueller-Hinton Broth, 37°C, 24 h, OD 595 nm, biological triplicates; NE = MIC value not found. The procedure: as §1, §2, §3
Data set [6] concerns C. parapsilosis (ATCC22019). Description: Broth microdilution MIC (CLSI M27-A3 with modifications). The class given is cell-based, Candida parapsilosis. The conditions noted are these: 2.5 × 10^3 CFU.ml^−1, Sabouraud medium, 24 h at 30°C, absorbance 595 nm. The procedure:
The broth microdilution method was performed according to the Clinical and Laboratory Standards Institute Guideline M27-A3 with modifications to determine the Minimum Inhibitory Concentration (MIC; [Clinical Laboratory Standards Institute, 2008]).
Initially, the fungus C. parapsilosis (ATCC22019) was grown in a Petri dish containing Sabouraud Dextrose Agar medium (Dextrose 40 g/L; Peptic digestion of animal tissue 5.0 g.L^−1; and Agar 15 g.L^−1) for 48 h. Subsequently, a pre-inoculum was performed from a yeast colony that was placed in 10 ml of liquid Sabouraud medium and incubated for 16 h at 28°C, with a constant rotation of 200 rpm. After the incubation period, 2.5 × 10^3 CFU.ml^−1 of fungus per well was incubated with different peptide micromolar concentrations (Table 1) to assess the MIC for each peptide.
Fungal cells incubated with Sabouraud medium were used as negative control, while positive control was represented by fungal cells incubated in Sabouraud medium and amphotericin B (10 μM). Subsequently, plates were incubated for 24 h at 30°C. After this period, the absorbance was read (595 nm) in a BioTek spectrophotometer (PowerWaveTM HT Microplate Reader), and data of antifungal activity with percentage of inhibition of peptides were plotted in GraphPad Prism 8 Software.
(In general: In broth dilution the organism is exposed to a series of concentrations in liquid medium.)

In data set [7] the test system is Spodoptera frugiperda (SF21) cells. Put plainly: In vitro test against insect cells (MTT). Format: cell-based. As to conditions: lowest concentration tested (1 μM), 24 h. The procedure:
To evaluate the ability of the peptides to cause lysis and morphological changes in insect cells ([Dutra, 2019]; Patent: BR 102022 006138 6) as a first screening of the insecticidal activity of the peptides, in this work, the Spodoptera IPLB-SF-21AE _LVI-Cenargen cell line ([Vaughn et al., 1977]) was used and different concentrations of the peptides were added to the culture medium.
Cells were maintained at 27°C in TNMFH medium (Grace’s insect medium supplemented with lactalbumin hydrolyzate and yeastolate), supplemented with 10% (v/v) fetal bovine serum (Sigma-Aldrich; [Castro et al., 2006]).
Cell cultivation was carried out in 10 ml culture bottles, model K11-1050 25cm^2, with 5 ml of culture medium per bottle. For the assays, the SF21 cells were grown in TNMFH medium, added 10% (v/v) of bovine fetal serum, and distributed in plates of 96 wells at the concentration of 2×10^4 cells per well, after counting was performed in the Neubauer chamber. Cell suspension was distributed in a volume of 100 μl per well. Peptides were diluted in TNMFH medium and 100 μl of medium with peptide was added, obtaining concentrations of 10, 5, and 1 μM, reaching the volume of 200 μl at the final concentrations of reaction per well. Cells were placed in incubation at 27°C, for 24 h.
After 24 h, the cells were analyzed for their modifications, morphological alterations, turbidity of the medium, formation of clumps, and/or lysis in the presence of peptides, by observation under optical microscopy (Nikon Eclipse TS100) with 20× and 40× magnification. Characteristics that could represent cell death or cell dysfunction caused by the peptides were observed compared to control cells. Cells were evaluated by cell viability using the MTT test 3-[4,5-dimethylthiazole-2-yl]-2,5-diphenyltetrazolium bromide 0.5 mg.ml^−1 (Sigma-Aldrich). To perform the test, the cell culture medium was discarded, and we added 100 μl of new medium. Ten μl of MTT was added to each well and incubated for 4 h, with the plates protected from light. After 4 h, we added 100 μl of DMSO to each well to dissolve the formazan crystals, and the reading in the microplate reader ([Riss et al., 2016]) was then performed. The results were analyzed using GraphPad Prism 8 software, where a One-Way ANOVA statistical test was followed by Bonferroni’s multiple comparisons test.

Structures are written as SMILES. Values after ≈ are worked out from the molar mass of the structure shown. Where a SMILES comes first, the peptide text is derived from it.

Consider `CC(C)C[C@H](NC(=O)[C@H](C)NC(=O)CNC(=O)[C@H](Cc1ccccc1)NC(=O)CN)C(=O)N[C@@H](Cc1ccccc1)C(=O)N[C@@H](CCCCN)C(=O)N[C@@H](Cc1ccccc1)C(=O)N[C@@H](CC(C)C)C(=O)N[C@@H](C)C(=O)N[C@@H](CCCCN)C(=O)N[C@@H](CCCCN)C(=O)N[C@H](C(=O)N[C@@H](C)C(=O)N[C@@H](CCCCN)C(=O)N[C@@H](C)C(=O)N[C@H](C(=O)N[C@@H](C)C(N)=O)C(C)C)C(C)C` [Peptide R2b] (H-GFGALFKFLAKKVAKAVA-NH2), for which, in data set [1] (at the MIC of R2b for these strains (17.15 μM in Table 3)), the “cell viability (RAW264.7) in the MIC found for MRSA3730592, S. aureus ATCC25923, K. pneumoniae ATCC13883” value is “above 50%”. In data set [1] (tested concentrations of Table 1 (128–16 μg.ml^−1)), the “toxicity against RAW264.7 cells (in words)” value is given as “high toxicity”. The “Minimum inhibitory concentration (MIC)” value in data set [2] came to 17.15 µM (≈ 32 µg/mL); in data set [3], 17.15 µM (≈ 32 µg/mL); in data set [4], 17.15 µM (≈ 32 µg/mL); in data set [5], 34.31 µM (≈ 64 µg/mL); in data set [6], 34.31 µM (≈ 64 µg/mL). Further, the “cell viability (SF21)” value in data set [7] is recorded as “below 50%”.
With `CC(C)C[C@H](NC(=O)[C@H](C)NC(=O)CNC(=O)[C@H](Cc1ccccc1)NC(=O)CN)C(=O)N[C@@H](Cc1ccccc1)C(=O)N[C@@H](CCCCN)C(=O)N[C@@H](Cc1ccccc1)C(=O)N[C@@H](CC(C)C)C(=O)N[C@@H](C)C(=O)N[C@@H](CCCCN)C(=O)N[C@@H](CCCCN)C(=O)N[C@H](C(=O)N[C@@H](C)C(=O)N[C@@H](CCCCN)C(=O)N[C@H](C(=O)N[C@H](C(=O)N[C@@H](C)C(=O)N[C@@H](CCCCN)C(N)=O)C(C)C)[C@@H](C)O)C(C)C` [Peptide R1a] (H-GFGALFKFLAKKVAKTVAK-NH2), in data set [1] (at the MIC of R1a for these strains (15.81 μM in Table 3)), the “viable cells (RAW264.7) in the MIC found for MRSA, S. aureus ATCC25923 and C. parapsilosis ATCC22019” value is on record as 63%. The “toxicity on RAW264.7 macrophages in the concentration range of 33.77 μM (in words)” value in data set [1] (concentration range of 33.77 μM) is “high toxicity”. The “Minimum inhibitory concentration (MIC)” value came to 31.63 µM (≈ 64 µg/mL) in data set [2], 15.81 µM (≈ 32 µg/mL) in data set [3], 15.81 µM (≈ 32 µg/mL) in data set [4] and 15.81 µM (≈ 32 µg/mL) in data set [6].
With `CC(C)C[C@H](NC(=O)[C@H](C)NC(=O)CNC(=O)[C@H](Cc1ccccc1)NC(=O)CN)C(=O)N[C@@H](Cc1ccccc1)C(=O)N[C@@H](CCCCN)C(=O)N[C@@H](Cc1ccccc1)C(=O)N[C@@H](CC(C)C)C(=O)N[C@@H](C)C(=O)N[C@@H](CCCCN)C(=O)N[C@@H](CCCCN)C(=O)N[C@H](C(=O)N[C@@H](C)C(=O)N[C@@H](CCCCN)C(=O)N[C@H](C(=O)N[C@H](C(=O)N[C@@H](C)C(N)=O)C(C)C)[C@@H](C)O)C(C)C` [Peptide R1b] (H-GFGALFKFLAKKVAKTVA-NH2), the “viable cells (RAW264.7)” value in data set [1] (33.77 μM) came to 58%. The “toxicity to RAW264.7 cells at the MIC concentration (in words)” value in data set [1] (R1b: MIC found for KPC1410503, R3b: MIC at high concentrations against all tested microorganisms) is “high toxicity”. Further, the “Minimum inhibitory concentration (MIC)” value in data set [2] is 33.77 µM (≈ 64 µg/mL); in data set [3], 33.77 µM (≈ 64 µg/mL); in data set [4] it was 33.77 µM (≈ 64 µg/mL); in data set [5] it was 67.54 µM (≈ 128 µg/mL); in data set [6], 16.88 µM (≈ 32 µg/mL).

(Values after article PMC9433906, “Evaluation of the biotechnological potential of peptide Cupiennin 1a and analogs” (Frontiers in Microbiology, 2022).)
